pKi: −log10 of the molar value.
Assays:
[1] = target: T1, human cloned 5-HT6 receptors (Homo sapiens, UniProt P50406); assay: 5-HT6 binding affinity, [3H]-LSD displacement on membranes of Hela cells expressing human cloned 5-HT6 receptors; settings: [3H]-LSD 3.0 nM, Hela cell membranes, 120 min at room temperature; read-out: 5-HT6 Binding Ki
T1 construct: expressed in transfected cells; host or cells: Hela cells
T1 sequence (P50406 whole entry): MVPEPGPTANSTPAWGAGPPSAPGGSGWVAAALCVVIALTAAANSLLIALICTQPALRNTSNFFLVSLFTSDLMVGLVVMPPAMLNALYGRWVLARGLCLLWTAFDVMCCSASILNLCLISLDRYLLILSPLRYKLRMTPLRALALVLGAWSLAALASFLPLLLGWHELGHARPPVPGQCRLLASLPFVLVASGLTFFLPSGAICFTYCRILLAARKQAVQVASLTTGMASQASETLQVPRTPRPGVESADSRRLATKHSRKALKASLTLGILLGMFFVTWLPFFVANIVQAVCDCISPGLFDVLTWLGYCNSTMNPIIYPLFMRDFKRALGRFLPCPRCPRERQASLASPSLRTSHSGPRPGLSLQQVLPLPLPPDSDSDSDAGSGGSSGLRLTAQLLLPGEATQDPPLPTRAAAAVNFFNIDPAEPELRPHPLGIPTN

Question: With `Cc1c(S(=O)(=O)c2ccc3ccccc3c2)c2cccnc2n1CCN(C)C` [Example 45] as the compound, how does the pKi [1] read?
Answer: The pKi was 8.00.

Question: What about the melting point of the same compound?
Answer: Its melting point is 238 to 240 °C.

— patent US7585873B2, “1-(aminoalkyl)-3-sulfonylazaindoles as 5-hydroxytryptamine-6 ligands” (Wyeth, priority 2002, dated 2009)
